13 compounds from ChEMBL document CHEMBL5465560, “Selectivity Literature for EUbOPEN Chemogenomic Library” (2024) can be followed below.

Assay [1] addresses Tyrosine-protein kinase Lck (Homo sapiens, UniProt P06239). Kind of assay: Selectivity interaction (Kinase panel (Z-LYTE Assay)) EUB0001632a LCK. To be noted: at 10 µM.
Assay [2] concerns the target Tyrosine-protein kinase Blk (Homo sapiens) (UniProt P51451). Kind of assay: Selectivity interaction (KinomeScan (DiscoverX)) EUB0001619a BLK. To be noted: at 1 µM.
The target of assay [3] is LIM domain kinase 1 (Homo sapiens) (UniProt P53667). As to conditions: at 10 µM.
The target in assay [4] is Serine/threonine-protein kinase 38 (Homo sapiens) (UniProt Q15208). Kind of assay: Selectivity interaction (KinomeScan (DiscoverX)) EUB0000695a STK38. To be noted: at 100 nM.
Assay [5] addresses LIM domain kinase 2 (Homo sapiens) (UniProt P53671). To be noted: at 10 µM.
Assay [6] addresses 5'-AMP-activated protein kinase catalytic subunit alpha-1 (Homo sapiens, UniProt Q13131). As to conditions: at 10 µM.
The target of assay [7] is Serine/threonine-protein kinase Chk2 (Homo sapiens) (UniProt O96017). Kind of assay: Selectivity interaction (ActivX KiNativ screen (kinase selectivity in THP-1 cell lysates)) EUB0000639a CHEK2. To be noted: lysate. The assay is classed as subcellular.
For assay [8], the target named is T1, Dual specificity mitogen-activated protein kinase kinase 6 (Homo sapiens) (UniProt P52564).
T1 sequence (whole entry): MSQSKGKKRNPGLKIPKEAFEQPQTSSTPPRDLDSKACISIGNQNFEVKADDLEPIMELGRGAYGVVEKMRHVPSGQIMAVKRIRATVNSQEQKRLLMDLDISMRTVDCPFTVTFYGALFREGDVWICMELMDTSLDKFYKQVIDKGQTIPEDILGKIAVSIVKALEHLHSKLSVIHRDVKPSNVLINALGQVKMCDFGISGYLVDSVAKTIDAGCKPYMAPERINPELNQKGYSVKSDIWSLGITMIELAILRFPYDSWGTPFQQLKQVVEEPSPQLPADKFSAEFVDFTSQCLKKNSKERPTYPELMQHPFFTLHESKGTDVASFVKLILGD
Kind of assay: Selectivity interaction (Kinase panel (Invitrogen)) EUB0000639a MAP2K6. To be noted: at 200 nM.

In assay [9] the target is 5'-AMP-activated protein kinase catalytic subunit alpha-2 (Homo sapiens) (UniProt P54646). Kind of assay: Selectivity interaction (ActivX KiNativ screen (kinase selectivity in THP-1 cell lysates)) EUB0000639a PRKAA2. The assay is classed as subcellular. To be noted: lysate, at 0.01 µM.
In assay [10] the target is T2, Histone-arginine methyltransferase CARM1 (Homo sapiens) (UniProt Q86X55).
T2 sequence (whole entry): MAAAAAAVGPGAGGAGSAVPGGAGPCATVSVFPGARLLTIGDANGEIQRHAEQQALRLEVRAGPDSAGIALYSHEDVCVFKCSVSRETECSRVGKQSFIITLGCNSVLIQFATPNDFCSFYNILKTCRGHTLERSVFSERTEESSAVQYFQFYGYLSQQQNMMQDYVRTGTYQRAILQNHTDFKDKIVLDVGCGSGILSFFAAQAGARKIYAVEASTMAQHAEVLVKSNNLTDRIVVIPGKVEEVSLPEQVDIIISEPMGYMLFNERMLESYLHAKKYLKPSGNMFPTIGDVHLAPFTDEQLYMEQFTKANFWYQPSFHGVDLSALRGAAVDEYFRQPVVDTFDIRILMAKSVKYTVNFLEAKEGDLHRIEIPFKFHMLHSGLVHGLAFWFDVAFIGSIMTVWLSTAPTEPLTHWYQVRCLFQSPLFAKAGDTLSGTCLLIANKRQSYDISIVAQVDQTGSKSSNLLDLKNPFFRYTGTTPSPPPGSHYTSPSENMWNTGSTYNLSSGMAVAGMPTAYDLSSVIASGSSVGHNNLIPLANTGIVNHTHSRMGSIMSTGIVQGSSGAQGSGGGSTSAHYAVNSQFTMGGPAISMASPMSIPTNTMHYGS
To be noted: MM1.S, at 3 µM.

The target in assay [11] is TRAF2 and NCK-interacting protein kinase (Homo sapiens) (UniProt Q9UKE5). Kind of assay: Selectivity interaction (KinomeScan (DiscoverX)) EUB0000045b TNIK.
The test system of assay [12] is Epidermal growth factor receptor (Homo sapiens), P00533 [UNDEFINED MUTATION]. Kind of assay: Selectivity interaction (KinomeScan (DiscoverX)) EUB0000045b EGFR. As to conditions: at 1 µM.
The target of assay [13] is T3, Serine/threonine-protein kinase RIO1 (Homo sapiens) (UniProt Q9BRS2).
T3 sequence (whole entry): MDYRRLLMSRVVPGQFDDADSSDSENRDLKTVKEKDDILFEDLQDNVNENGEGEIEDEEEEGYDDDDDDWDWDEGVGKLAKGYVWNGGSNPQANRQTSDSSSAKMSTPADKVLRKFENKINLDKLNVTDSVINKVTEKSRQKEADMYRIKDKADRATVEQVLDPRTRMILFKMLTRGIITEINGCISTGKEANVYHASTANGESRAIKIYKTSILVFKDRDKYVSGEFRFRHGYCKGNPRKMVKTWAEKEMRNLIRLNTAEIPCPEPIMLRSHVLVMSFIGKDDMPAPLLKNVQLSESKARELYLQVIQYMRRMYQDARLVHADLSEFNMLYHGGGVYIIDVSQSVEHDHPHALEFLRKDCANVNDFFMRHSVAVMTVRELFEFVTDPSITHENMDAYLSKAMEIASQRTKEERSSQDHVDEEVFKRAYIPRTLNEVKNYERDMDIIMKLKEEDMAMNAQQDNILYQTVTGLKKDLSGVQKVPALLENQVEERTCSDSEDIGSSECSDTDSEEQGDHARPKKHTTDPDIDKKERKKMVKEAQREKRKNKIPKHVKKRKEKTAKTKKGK
Kind of assay: Selectivity interaction (KinomeScan (DiscoverX)) EUB0000655a RIOK1. To be noted: at 10 µM.

Assay [14] addresses Calcium/calmodulin-dependent protein kinase type II subunit alpha (Homo sapiens, UniProt Q9UQM7). Kind of assay: Selectivity interaction (KinomeScan (DiscoverX)) EUB0000618a CAMK2A. To be noted: at 10 µM.
The target of assay [15] is Serine/threonine-protein kinase PAK 2 (Homo sapiens) (UniProt Q13177). Kind of assay: Selectivity interaction (KinomeScan (DiscoverX)) EUB0000092b PAK2. As to conditions: at 10 µM.
Assay [16] deals with Protein polybromo-1 (Homo sapiens) (UniProt Q86U86). Kind of assay: Selectivity interaction (Human bromodomain panel (DSF assay)) EUB0000233b PBRM1. (DSF heats the sample and reads unfolding from a dye or from intrinsic fluorescence.)
Assay [17] relates to Epidermal growth factor receptor (Homo sapiens), P00533 [UNDEFINED MUTATION]. Kind of assay: Selectivity interaction (KinomeScan (DiscoverX)) EUB0001079a EGFR. To be noted: at 1 µM.

SMILES strings stand for the structures. A value given as a limit tells only on which side of the number the result lay.

Chain of Serine/threonine-protein kinase Chk2 (Homo sapiens) (O96017 whole entry): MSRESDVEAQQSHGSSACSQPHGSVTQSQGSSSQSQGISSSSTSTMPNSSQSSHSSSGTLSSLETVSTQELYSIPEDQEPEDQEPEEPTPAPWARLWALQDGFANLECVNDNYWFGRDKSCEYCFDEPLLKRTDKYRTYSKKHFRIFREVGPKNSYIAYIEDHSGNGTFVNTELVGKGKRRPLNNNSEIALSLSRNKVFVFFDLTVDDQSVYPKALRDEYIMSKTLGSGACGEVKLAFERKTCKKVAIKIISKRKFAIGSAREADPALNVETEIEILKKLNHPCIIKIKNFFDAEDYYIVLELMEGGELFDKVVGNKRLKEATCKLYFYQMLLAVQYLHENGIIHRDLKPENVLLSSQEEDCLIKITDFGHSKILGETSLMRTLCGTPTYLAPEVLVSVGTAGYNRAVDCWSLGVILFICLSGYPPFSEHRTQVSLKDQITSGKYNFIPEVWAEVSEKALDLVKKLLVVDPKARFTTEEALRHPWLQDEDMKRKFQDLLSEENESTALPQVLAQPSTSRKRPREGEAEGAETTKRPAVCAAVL
Chain of TRAF2 and NCK-interacting protein kinase (Homo sapiens) (Q9UKE5 whole entry, looked up): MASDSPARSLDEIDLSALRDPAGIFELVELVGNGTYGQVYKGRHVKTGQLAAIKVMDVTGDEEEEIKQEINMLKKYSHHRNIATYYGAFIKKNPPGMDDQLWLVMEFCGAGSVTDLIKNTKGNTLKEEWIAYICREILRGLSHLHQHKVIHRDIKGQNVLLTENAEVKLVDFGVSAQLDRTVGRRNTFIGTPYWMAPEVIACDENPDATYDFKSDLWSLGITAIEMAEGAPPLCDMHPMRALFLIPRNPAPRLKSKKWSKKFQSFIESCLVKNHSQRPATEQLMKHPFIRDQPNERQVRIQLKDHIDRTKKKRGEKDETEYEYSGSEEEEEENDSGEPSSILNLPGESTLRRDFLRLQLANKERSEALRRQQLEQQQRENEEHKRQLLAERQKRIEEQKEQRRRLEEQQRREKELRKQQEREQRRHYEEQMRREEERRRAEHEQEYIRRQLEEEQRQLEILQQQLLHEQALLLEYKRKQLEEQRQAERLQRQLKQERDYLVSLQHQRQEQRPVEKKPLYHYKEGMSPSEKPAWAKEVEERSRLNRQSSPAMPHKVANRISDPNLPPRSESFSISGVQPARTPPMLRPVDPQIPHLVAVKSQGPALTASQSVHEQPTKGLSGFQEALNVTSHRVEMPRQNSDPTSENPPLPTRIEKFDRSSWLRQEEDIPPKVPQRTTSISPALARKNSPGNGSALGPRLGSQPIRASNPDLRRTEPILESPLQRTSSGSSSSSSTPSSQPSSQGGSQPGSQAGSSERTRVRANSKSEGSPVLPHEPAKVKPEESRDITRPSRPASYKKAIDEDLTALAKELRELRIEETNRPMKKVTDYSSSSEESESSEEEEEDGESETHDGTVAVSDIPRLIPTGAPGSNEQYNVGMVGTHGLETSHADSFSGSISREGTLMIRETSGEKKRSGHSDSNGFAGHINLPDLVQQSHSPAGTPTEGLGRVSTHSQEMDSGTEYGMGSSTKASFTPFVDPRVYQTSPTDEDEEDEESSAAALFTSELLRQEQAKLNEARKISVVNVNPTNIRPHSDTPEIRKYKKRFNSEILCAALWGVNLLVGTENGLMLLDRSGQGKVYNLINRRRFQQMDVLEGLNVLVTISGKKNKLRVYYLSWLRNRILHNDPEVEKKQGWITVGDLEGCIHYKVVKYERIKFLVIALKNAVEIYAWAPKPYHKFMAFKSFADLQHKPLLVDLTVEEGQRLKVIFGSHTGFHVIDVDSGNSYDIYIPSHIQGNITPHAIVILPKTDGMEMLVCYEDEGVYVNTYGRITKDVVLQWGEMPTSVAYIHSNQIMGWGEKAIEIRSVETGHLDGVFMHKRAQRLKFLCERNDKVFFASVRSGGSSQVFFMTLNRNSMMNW
Chain of Epidermal growth factor receptor (Homo sapiens), P00533 [UNDEFINED MUTATION] (P00533 whole entry, looked up, change not shown): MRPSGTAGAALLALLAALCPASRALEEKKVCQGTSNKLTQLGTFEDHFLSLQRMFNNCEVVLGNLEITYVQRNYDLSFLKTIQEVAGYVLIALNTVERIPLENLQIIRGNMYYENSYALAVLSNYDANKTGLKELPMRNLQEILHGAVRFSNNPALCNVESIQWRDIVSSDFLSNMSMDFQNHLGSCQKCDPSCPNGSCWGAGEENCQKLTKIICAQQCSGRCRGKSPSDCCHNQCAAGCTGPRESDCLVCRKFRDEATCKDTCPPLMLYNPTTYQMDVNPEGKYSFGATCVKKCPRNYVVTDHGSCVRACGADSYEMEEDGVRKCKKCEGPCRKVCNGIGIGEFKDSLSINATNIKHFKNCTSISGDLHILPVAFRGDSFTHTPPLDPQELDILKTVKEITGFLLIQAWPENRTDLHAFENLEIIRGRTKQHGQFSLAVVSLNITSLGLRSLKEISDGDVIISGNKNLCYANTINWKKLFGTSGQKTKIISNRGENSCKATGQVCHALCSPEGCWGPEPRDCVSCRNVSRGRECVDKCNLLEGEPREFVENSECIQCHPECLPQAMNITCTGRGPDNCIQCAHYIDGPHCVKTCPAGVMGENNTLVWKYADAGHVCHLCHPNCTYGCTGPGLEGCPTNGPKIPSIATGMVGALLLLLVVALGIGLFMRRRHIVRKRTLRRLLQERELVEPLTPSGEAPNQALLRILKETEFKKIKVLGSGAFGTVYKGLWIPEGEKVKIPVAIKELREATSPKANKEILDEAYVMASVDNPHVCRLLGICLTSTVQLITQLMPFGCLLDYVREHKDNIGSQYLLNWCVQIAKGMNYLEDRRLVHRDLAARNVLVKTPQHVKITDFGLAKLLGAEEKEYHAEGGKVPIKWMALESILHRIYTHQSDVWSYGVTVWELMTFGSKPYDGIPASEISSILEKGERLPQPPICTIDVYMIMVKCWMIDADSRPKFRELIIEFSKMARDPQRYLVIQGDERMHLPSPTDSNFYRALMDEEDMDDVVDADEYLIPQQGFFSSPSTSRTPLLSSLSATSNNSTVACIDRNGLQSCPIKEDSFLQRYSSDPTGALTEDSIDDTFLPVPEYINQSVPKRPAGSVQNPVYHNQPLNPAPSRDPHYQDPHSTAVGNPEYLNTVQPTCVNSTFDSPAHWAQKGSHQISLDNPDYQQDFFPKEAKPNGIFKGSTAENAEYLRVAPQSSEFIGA
Chain of LIM domain kinase 2 (Homo sapiens) (P53671 whole entry, looked up, the tested form may be a part): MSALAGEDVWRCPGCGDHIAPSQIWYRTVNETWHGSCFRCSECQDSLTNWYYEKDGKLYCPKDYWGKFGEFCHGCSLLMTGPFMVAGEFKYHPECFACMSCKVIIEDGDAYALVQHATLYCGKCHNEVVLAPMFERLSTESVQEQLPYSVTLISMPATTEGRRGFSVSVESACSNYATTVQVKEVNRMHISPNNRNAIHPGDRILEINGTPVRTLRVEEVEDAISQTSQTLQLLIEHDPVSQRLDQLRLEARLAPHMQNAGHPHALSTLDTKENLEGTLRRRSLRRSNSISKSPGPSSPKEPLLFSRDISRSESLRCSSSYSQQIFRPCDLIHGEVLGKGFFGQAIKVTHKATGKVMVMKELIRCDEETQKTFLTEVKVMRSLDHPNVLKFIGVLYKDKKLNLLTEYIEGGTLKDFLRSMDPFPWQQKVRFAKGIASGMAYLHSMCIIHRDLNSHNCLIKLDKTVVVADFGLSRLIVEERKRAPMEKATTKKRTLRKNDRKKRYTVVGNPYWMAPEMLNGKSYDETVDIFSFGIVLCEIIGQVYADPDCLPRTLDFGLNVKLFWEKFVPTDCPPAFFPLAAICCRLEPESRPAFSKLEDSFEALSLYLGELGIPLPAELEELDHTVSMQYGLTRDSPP
Chain of LIM domain kinase 1 (Homo sapiens) (P53667 whole entry, looked up, the tested form may be a part): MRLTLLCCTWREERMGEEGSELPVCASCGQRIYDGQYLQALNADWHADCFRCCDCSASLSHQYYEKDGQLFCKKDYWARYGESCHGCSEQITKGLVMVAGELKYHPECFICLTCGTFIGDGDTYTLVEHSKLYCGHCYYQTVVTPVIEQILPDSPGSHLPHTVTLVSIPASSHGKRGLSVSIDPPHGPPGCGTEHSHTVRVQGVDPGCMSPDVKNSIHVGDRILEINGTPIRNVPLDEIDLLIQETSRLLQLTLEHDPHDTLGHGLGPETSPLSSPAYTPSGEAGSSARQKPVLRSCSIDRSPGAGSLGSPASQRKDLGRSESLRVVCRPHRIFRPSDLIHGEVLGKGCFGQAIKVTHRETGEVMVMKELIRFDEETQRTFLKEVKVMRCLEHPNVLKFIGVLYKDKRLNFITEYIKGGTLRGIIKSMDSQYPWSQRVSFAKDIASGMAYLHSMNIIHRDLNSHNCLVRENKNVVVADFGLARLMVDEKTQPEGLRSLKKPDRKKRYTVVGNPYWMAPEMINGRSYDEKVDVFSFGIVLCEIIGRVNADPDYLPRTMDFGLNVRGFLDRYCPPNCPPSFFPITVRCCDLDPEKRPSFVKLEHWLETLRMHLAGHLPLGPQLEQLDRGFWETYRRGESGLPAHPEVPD
Chain of Serine/threonine-protein kinase 38 (Homo sapiens) (Q15208 2-465 limits assumed): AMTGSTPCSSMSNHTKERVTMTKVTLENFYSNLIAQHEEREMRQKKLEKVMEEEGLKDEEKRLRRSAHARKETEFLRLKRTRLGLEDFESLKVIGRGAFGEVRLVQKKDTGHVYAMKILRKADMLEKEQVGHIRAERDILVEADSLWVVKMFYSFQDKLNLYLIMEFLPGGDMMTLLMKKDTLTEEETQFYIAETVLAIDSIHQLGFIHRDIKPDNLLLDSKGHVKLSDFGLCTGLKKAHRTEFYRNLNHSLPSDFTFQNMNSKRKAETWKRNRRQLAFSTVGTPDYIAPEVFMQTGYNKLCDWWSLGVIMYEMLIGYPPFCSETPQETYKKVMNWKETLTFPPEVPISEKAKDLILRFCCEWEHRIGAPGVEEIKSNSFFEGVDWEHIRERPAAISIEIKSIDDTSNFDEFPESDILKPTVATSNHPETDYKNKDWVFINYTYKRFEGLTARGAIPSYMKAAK

As for `Cn1cc(-n2cnc3c(NCc4nc5cc(Cl)c(Cl)cc5[nH]4)nc(N4CCOCC4)nc32)cn1`, the % of control in assay [1] worked out at 11.9%. `N#Cc1cccc(-c2c[nH]c3ncnc(N4CCOCC4)c23)c1` came in with a % of control in assay [2] of 72%.

`CCN(CC)CCCCNc1ncc2cc(-c3cc(OC)cc(OC)c3)c(NC(=O)NC(C)(C)C)nc2n1` displayed a % of control in assay [3] of 100%. `Cc1cc(F)c(C(=O)Nc2cccc(-c3nncn3C(C)C)n2)cc1-n1cnc(C2CC2)c1` came in with a % of control in [4] of 93%. As to `Cc1cc([C@@H](C)Nc2ccccc2C(=O)O)c2nc(N3CCOCC3)cc(=O)n2c1` [AZD-6482], the % of control in [5] and in assay [6] was 100% throughout. For `CC[C@@H]1[C@H](F)C(=O)N[C@@H]1COc1nccc2cc(C(N)=O)c(OC)cc12` [ZIMLOVISERTIB], the % of inhibition in assay [7] (at 0.01 µM) stood at 4.5%; in assay [7] (at 0.04 µM), 8.5%; in [7] (at 0.2 µM), 3.8%; in assay [7] (at 1 µM), 30.1%; in assay [7] (at 5 µM) it was 58.9%; in assay [8], 1.6%. This compound displayed a % of inhibition in assay [9] of 14.5%. As for `CNCCN1CCC(c2cc(CN(C)C(=O)c3cccc(Oc4ccccc4)c3)ccn2)CC1`, the % of growth rate in assay [10] is -31%. With `C=CC(=O)Nc1cc(-n2c(=O)ccc3cnc4ccc(-c5ccc(NS(C)(=O)=O)cc5)cc4c32)ccc1C`, the % of control in assay [11] (at 1 µM) came to 96%; in [11] (at 10 µM) it was 100%; in [12], 66%. As to `CN(C)CCOc1ccc(-c2nc(-c3ccncc3)c(-c3ccc4c(c3)CC/C4=N\O)[nH]2)cc1`, in [13], the % of control worked out at 97%. Regarding `O[C@H]1CC[C@H](Nc2ncc3nc(Nc4c(F)cc(F)cc4F)n([C@H]4CCOC4)c3n2)CC1`, in assay [14], the % of control turned out to be 95%. In turn, `CCC(=O)N1CCN(c2ccc(-n3c(=O)ccc4cnc5ccc(-c6cnc7ccccc7c6)cc5c43)cc2C(F)(F)F)CC1` yielded a % of control in assay [15] of 100%. For `CN(C)CCCOc1ccc(-c2cc(NCCCn3cccn3)nc(S(C)(=O)=O)n2)cc1`, the dTM in [16] is less than 2 K. Regarding `Nc1cnc(N2CCc3cc(S(=O)(=O)Nc4c(F)cc(Cl)cc4F)cc(N4CCCC4=O)c32)nc1` [TP-020n], in [17], the % of control turned out to be 100%.
